# System: Mus musculus
# Assay: Reduction in Abeta oligomers levels in Tg2576 mouse administered for 4 weeks
# Assay type: functional
compound,measurement,value
NS(=O)(=O)c1cc(C(=O)O)c(NCc2ccco2)cc1Cl [FUROSEMIDE],inhibition (INH),30%
